The source of these data is US8802678B2, “Carbonylated (aza) cyclohexanes as dopamine D3 receptor ligands” (Bioprojet, priority 2006, dated 2014).

pKi: −log10 of the molar value. Counter-ions that a name gives are not always drawn.

Data set [1] has as its target human D3 receptor (Homo sapiens, UniProt P35462). As to the kind of experiment: [3H]spiperone binding, membranes of CHO cells transfected with human D3 receptor cDNA. The following applies: affinity for the human D3 receptor; [3H]spiperone 0.5-2 nM, CHO-hD3 membranes, 60 minutes at room temperature. The procedure: Affinity of compounds for the human D3 receptor can be determined by [^3H] spiperone binding CHO cells have been transfected by the cDNA coding for the human D3 receptor (hD3). [^3H]Spiperone (0.5 à 2 nM) binding is performed in the presence of 2.5 to 5 μg of membrane proteins in a medium containing 120 mM NaCl, 5 mM KCl, and 50 mM Tris HCl pH 7.4; incubation for 60 minutes at room temperature is performed. Non specific binding is estimated in the presence of 10 μM haloperidol. Non transfected cells are devoid of any specific binding.

Chain of human D3 receptor (P35462 whole entry): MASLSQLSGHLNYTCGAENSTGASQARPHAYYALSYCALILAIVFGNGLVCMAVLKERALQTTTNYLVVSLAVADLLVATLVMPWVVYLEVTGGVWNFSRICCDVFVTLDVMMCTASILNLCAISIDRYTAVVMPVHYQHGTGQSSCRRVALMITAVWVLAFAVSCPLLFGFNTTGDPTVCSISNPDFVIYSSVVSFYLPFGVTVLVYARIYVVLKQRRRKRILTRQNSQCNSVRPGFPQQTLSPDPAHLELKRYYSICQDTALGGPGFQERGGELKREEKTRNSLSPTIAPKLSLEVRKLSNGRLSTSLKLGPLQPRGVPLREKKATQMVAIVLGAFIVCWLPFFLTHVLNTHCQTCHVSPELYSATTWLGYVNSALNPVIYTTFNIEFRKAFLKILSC

What is called pKi is the negative decadic logarithm of the Ki, by convention in mol/L. Read a high pKi as a small Ki. The term melting point denotes the temperature of the solid-liquid transition. In turn, `COCC(=O)NC1CCC(CCN2CCC(c3cccc(C(F)(F)F)c3)CC2)CC1` (mixture of isomers) [Example 61, 2-Methoxy-N-(4-{2-[4-(3-trifluoromethylphenyl)piperidin-1-yl]ethyl}cyclohexyl)acetamide trans/cis 95/5] yielded a melting point of 82 °C. The molecule further showed a pKi in data set [1] of 8.07.

`CC(=O)CC1CCC(CCN2CCN(c3ccccc3F)CC2)CC1.Cl` (mixture of isomers) [Example 288, 1-(4-{2-[4-(2-Fluorophenyl)-piperazin-1-yl]ethyl}cyclohexyl)-propan-2-one, hydrochloride trans/cis 80/20] displayed a melting point of 233 to 236 °C. This molecule also showed a pKi in data set [1] of 8.68.

In the case of `N#CCNC(=O)CC1CCC(CCN2CCN(c3ccccc3F)CC2)CC1` (mixture of isomers) [Example 308, N-Cyanomethyl-2-(4-{2-[4-(2-fluorophenyl)piperazin-1-yl]ethyl}cyclohexyl)acetamide trans/cis 90/10], the melting point lay in the range of 164 to 167 °C. In data set [1], the pKi was 8.46.

For the molecule `CC(=O)C(=O)N1CCC(CCN2CCN(c3cccc(C(F)(F)F)c3)CC2)CC1` [Example 2, 1-(4-{2-[4-(3-trifluoromethylphenyl)piperazin-1-yl]ethyl}-piperidin-1-yl)propane-1,2-dione, hydrochloride], the pKi in data set [1] is 8.18.

Take `CC(=O)NCC(=O)N1CCC(CCN2CCN(c3cccc(C(F)(F)F)c3)CC2)CC1` [Example 14, N-[2-Oxo-2-(4-{2-[4-(3-trifluoromethylphenyl)piperazin-1-yl]ethyl}piperidin-1-yl)ethyl]acetamide]: the melting point worked out at 133 °C. For the same molecule, the pKi in data set [1] was 7.82.

The molecule `Cl.N#CCC(=O)N1CCC(CCN2CCN(c3cccc(C(F)(F)F)c3)CC2)CC1` [Example 15, 3-Oxo-3-(4-{2-[4-(3-trifluoromethylphenyl)piperazin-1-yl]ethyl}piperidin-1-yl)propanenitrile, hydrochloride] registered a melting point of 184 °C. Also, the negative logarithm of the Ki (pKi) in data set [1] is 7.82.

In turn, `COc1ccccc1N1CCN(CCC2CCN(CC(C)=O)CC2)CC1.Cl.Cl` [Example 20, 1-(4-{2-[4-(2-Methoxy-phenyl)piperazin-1-yl]ethyl}piperidin-1-yl)propan-2-one, dihydrochloride] returned a melting point of 260 °C. In data set [1], the pKi was 8.02.

With `CC(=O)CN1CCC(CCN2CCN(c3cccc4ccccc34)CC2)CC1.Cl.Cl` [Example 36, 1-{4-[2-(4-Naphthalen-1-ylpiperazin-1-yl)ethyl]piperidin-1-yl}propan-2-one], the melting point came to 338 °C. This molecule showed a negative-log Ki (pKi) in data set [1] of 8.88.

`O=C(CO)N[C@H]1CC[C@H](CCN2CCN(c3cccc(C(F)(F)F)c3)CC2)CC1` [Example 46, 2-Hydroxy-N-(4-{2-[4-(3-trifluoromethylphenyl)piperazin-1-yl]ethyl}cyclohexyl)acetamide, hydrochloride]: in data set [1], the negative logarithm of the Ki (pKi) is 7.92.

`COCC(=O)N[C@H]1CC[C@H](CCN2CC=C(c3cccc(C)c3C#N)CC2)CC1` [Example 54, N-(4-{2-[4-(2-Cyano-3-methylphenyl)-3,6-dihydro-2H-pyridin-1-yl]ethyl}cyclohexyl)-2-methoxyacetamide] had a melting point of 158 °C. The molecule further had a pKi in data set [1] of 7.74.

With `O=C(N[C@H]1CC[C@H](CCN2CCN(c3ccccn3)CC2)CC1)C1CC=CC1` [Example 65, Cyclopent-3-enecarboxylic acid {4-[2-(4-pyridin-2-ylpiperazin-1-yl)ethyl]cyclohexyl}amide], the melting point is 208 °C. The pKi in data set [1] is 7.50.

Regarding `N#Cc1ccc2c(c1)CCN(CC[C@H]1CC[C@H](NC(=O)CC(F)(F)F)CC1)C2` [Example 110, N-{4-[2-(6-Cyano-3,4-dihydro-1H-isoquinolin-2-yl)ethyl]cyclohexyl}-3,3,3-trifluoropropanamide], the melting point worked out at 215 °C. The negative-log Ki (pKi) in data set [1] was 7.97.

Turning to `NC(=O)CCC(=O)N[C@H]1CC[C@H](CCN2CCN(c3ccccc3)CC2)CC1` [Example 187, N-{4-[2-(4-Phenylpiperazin-1-yl)ethyl]cyclohexyl}succinamide], the melting point turned out to be 252 °C. The negative-log Ki (pKi) in data set [1] is 8.41.

Turning to `O=C(C=C1CCC(CCN2CCN(c3cccc(C(F)(F)F)c3)CC2)CC1)N1CCCC1` (centres unmarked) [Example 291, 1-Pyrrolidin-1-yl-2-(4-{2-[4-(3-trifluoromethylphenyl)piperazin-1-yl]ethyl}cyclohexylidene) ethanone], the melting point is 87 °C. This molecule also showed a pKi in data set [1] of 8.36.

Regarding `N#CC1CC1C(=O)N[C@H]1CC[C@H](CCN2CCN(c3cc(C(F)(F)F)ccc3F)CC2)CC1` (some centres unmarked) [Example 763, 2-Cyano-cyclopropanecarb-oxylic acid (4-{2-[4-(2-fluoro-5-trifluoromethylphenyl)piperazin-1-yl]ethyl}cyclohexyl) amide], the melting point amounted to 196 °C.

In the case of `N#CCCCC(=O)N[C@H]1CC[C@H](CCN2CCN(c3cc(Cl)c(Cl)cc3Cl)CC2)CC1` [Example 764, 4-Cyano-N-(4-{2-[4-(2,4,5-trichlorophenyl)piperazin-1-yl]ethyl}cyclohexyl)butanamide], the melting point was 179 °C.

For the molecule `N#CCCCC(=O)N[C@H]1CC[C@H](CCN2CCN(c3ccc(Cl)c(Cl)c3Cl)CC2)CC1` [Example 765, 4-Cyano-N-(4-{2-[4-(2,3,4-trichlorophenyl)piperazin-1-yl]ethyl}cyclohexyl)butanamide], the melting point was determined as 176 °C.

Regarding `CCC(=O)CN1CCC(CCN2CCN(c3cccc(Cl)c3Cl)CC2)CC1` [Example 771], the melting point came to 68 °C.

Molecule `CON(C)C(=O)CN1CCC(CCN2CCN(c3cccc(C)c3C)CC2)CC1` [Example 772, 2-(4-{2-[4-(2,3-dimethylphenyl)piperazin-1-yl]ethyl}piperidin-1-yl)-N-methoxy-N-methylacetamide] came in with a melting point of 66 °C.

Turning to `CCOC(=O)Nc1cccc(N2CCN(CCC3CCN(CC(C)=O)CC3)CC2)c1` [Example 777, [3-(4-{2-[1-(2-oxopropyl)piperidin-4-yl]ethyl}piperazin-1-yl)phenyl]carbamic acid ethyl ester], the melting point was found to be 118 °C.
